The record followed here is PubChem BioAssay (NCI).

Among the test systems are MDA-MB-231 breast; LOX IMVI melanoma; HCT-116 colon; OVCAR-4 ovarian; NCI-H226 lung; EKVX NSCLC; UACC-257 melanoma; HL-60(TB) leukemia; HCT-15 colon; SK-OV-3 ovarian.
Holding throughout (experiment): NCI-60 cell line screen, 48 h

Values joined by “and” are separate entries in the source; they are usually repeats but may differ in a detail not shown here. Equal entries are not always repeated.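 Step 1: Grow cells in 96-well plates. Step 2: Expose to compound for 48 hours at 5 concentrations. Step 3: Interpolate endpoints linearly; if unreached, use highest concentration. GI50 = concentration required for 50% inhibition of growth. TGI is the concentration that stops growth completely.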

For the molecule `Cn1cc(-c2nc(-c3c[nH]c4ncccc34)cs2)c2cc(Cl)ccc21`, the GI50 was 2.65 µM with MDA-MB-231 breast; 3.61 µM in the experiment with LOX IMVI melanoma; 4.34 µM with HCT-116 colon; 0.37 µM in the experiment with OVCAR-4 ovarian; 11.9 µM in the experiment with NCI-H226 lung; 0.678 µM in the experiment with EKVX NSCLC. Moreover, the GI50 in the experiment with UACC-257 melanoma is 3.26 µM; with HL-60(TB) leukemia it was 5.93 µM; in the experiment with HCT-15 colon, 2.34 µM; in the experiment with SK-OV-3 ovarian, 16.1 µM. Moreover, the TGI with MDA-MB-231 breast was 54.1 µM; in the experiment on LOX IMVI melanoma, more than 100 µM; in the experiment on HCT-116 colon it was more than 100 µM; in the experiment with OVCAR-4 ovarian, more than 100 µM; with NCI-H226 lung, more than 100 µM; in the experiment on EKVX NSCLC, more than 100 µM. The TGI was 16.5 µM in the experiment with UACC-257 melanoma, more than 100 µM in the experiment on HL-60(TB) leukemia, more than 100 µM with HCT-15 colon and more than 100 µM in the experiment on SK-OV-3 ovarian.
On to `Cc1c2ncccc2c(C)c2c1[nH]c1ccc(O)cc12`, for which the GI50 in the experiment with MDA-MB-231 breast was 7.26 µM; in the experiment on LOX IMVI melanoma, 2.39 µM; with HCT-116 colon, 2.91 µM and 6.58 µM; with NCI-H226 lung, 7.8 µM; in the experiment with EKVX NSCLC it was 1.01 µM; in the experiment on UACC-257 melanoma, 27.3 µM. In addition, the GI50 in the experiment on HL-60(TB) leukemia is 3.84 µM and 4.76 µM; with HCT-15 colon, 6.16 µM and 6.53 µM. Moreover, the TGI in the experiment with MDA-MB-231 breast is 19.2 µM and 54.4 µM; with LOX IMVI melanoma, 6.61 µM; in the experiment on HCT-116 colon, 11 µM and 64.6 µM; with OVCAR-4 ovarian, 16 µM; in the experiment on NCI-H226 lung, 22.2 µM and 17.6 µM; with EKVX NSCLC it was 17.3 µM and 63 µM. Also, the TGI was 25.2 µM and 89 µM in the experiment on UACC-257 melanoma; 10.5 µM and 15 µM in the experiment on HL-60(TB) leukemia; 17.6 µM and 40 µM in the experiment on HCT-15 colon; 11.4 µM with SK-OV-3 ovarian.
In the case of `O=c1oc2ccccc2c(Cl)c1Cl`, the GI50 with MDA-MB-231 breast was 2.48 µM; in the experiment with LOX IMVI melanoma it was 1.76 µM; in the experiment with HCT-116 colon, 3.49 µM; in the experiment on OVCAR-4 ovarian it was 6.76 µM; in the experiment on NCI-H226 lung it was 10 µM; in the experiment on EKVX NSCLC it was 11.2 µM. In addition, the GI50 is 2.24 µM with UACC-257 melanoma, 4.09 µM in the experiment on HL-60(TB) leukemia, 2.24 µM in the experiment with HCT-15 colon and 13.3 µM in the experiment with SK-OV-3 ovarian. The TGI in the experiment with MDA-MB-231 breast stood at 6.2 µM; with LOX IMVI melanoma it was 12.4 µM; in the experiment on HCT-116 colon, 13.6 µM; with OVCAR-4 ovarian, 19.6 µM; with NCI-H226 lung, 24.5 µM; in the experiment with EKVX NSCLC, 27.1 µM. For the same molecule, the TGI was 5.39 µM in the experiment with UACC-257 melanoma, 34.3 µM with HL-60(TB) leukemia, 6.28 µM in the experiment on HCT-15 colon and 87.3 µM with SK-OV-3 ovarian.
On to `Nc1nc(SCC(=O)O)[nH]c(=O)c1N`, for which the TGI in the experiment with MDA-MB-231 breast is more than 100 µM; in the experiment on LOX IMVI melanoma it was 42.8 µM; in the experiment with HCT-116 colon, more than 100 µM; with OVCAR-4 ovarian, more than 100 µM; in the experiment on NCI-H226 lung it was more than 100 µM; with EKVX NSCLC it was more than 100 µM. Also, the TGI in the experiment with UACC-257 melanoma, in the experiment with HL-60(TB) leukemia, with HCT-15 colon and with SK-OV-3 ovarian was more than 100 µM throughout.
As to `C=C(CN1CCc2ccccc2C1)c1ccc(/C=C/C(=O)Nc2ccccc2N)cc1`, the GI50 was 4.36 µM with MDA-MB-231 breast; 3.09 µM in the experiment with LOX IMVI melanoma; 1.59 µM with HCT-116 colon; 45.4 µM with OVCAR-4 ovarian; 2.64 µM in the experiment on NCI-H226 lung; 10.4 µM in the experiment with EKVX NSCLC. In addition, the GI50 was 1.3 µM with UACC-257 melanoma, 4.28 µM with HL-60(TB) leukemia, 1.69 µM in the experiment on HCT-15 colon and 66 µM in the experiment on SK-OV-3 ovarian. Moreover, the TGI in the experiment with MDA-MB-231 breast was 48.3 µM; in the experiment on LOX IMVI melanoma, 16.5 µM; in the experiment with HCT-116 colon it was 5.7 µM; in the experiment with OVCAR-4 ovarian, more than 100 µM; in the experiment on NCI-H226 lung, 25.4 µM; in the experiment on EKVX NSCLC, more than 100 µM. The TGI in the experiment with UACC-257 melanoma was 28 µM; with HL-60(TB) leukemia, 76.8 µM; with HCT-15 colon it was 62.9 µM; with SK-OV-3 ovarian, more than 100 µM.
On to `Cc1cc(Cl)ccc1NC(=O)/C(Cc1nc2ccc(C(=O)c3ccccc3)cc2[nH]c1=O)=N/NC(=O)c1ccncc1`, for which the TGI in the experiment on MDA-MB-231 breast, in the experiment with LOX IMVI melanoma, in the experiment on HCT-116 colon, in the experiment on OVCAR-4 ovarian, in the experiment with NCI-H226 lung and in the experiment with EKVX NSCLC was more than 100 µM each time. In addition, the TGI in the experiment on UACC-257 melanoma, with HL-60(TB) leukemia, with HCT-15 colon and in the experiment on SK-OV-3 ovarian was more than 100 µM each time.
As for `O=C1CC2(CCCc3sccc32)C(=O)N1` (stereo not drawn), the TGI with MDA-MB-231 breast, with LOX IMVI melanoma, in the experiment with HCT-116 colon, in the experiment on OVCAR-4 ovarian, in the experiment on NCI-H226 lung and in the experiment on EKVX NSCLC was more than 100 µM in each case. The TGI with UACC-257 melanoma, in the experiment on HL-60(TB) leukemia, in the experiment with HCT-15 colon and with SK-OV-3 ovarian was more than 100 µM throughout.
With `O=C(O)C1CCCN1Cc1c[nH]c2ccccc12` (stereo not drawn), the TGI in the experiment on MDA-MB-231 breast, in the experiment on LOX IMVI melanoma, in the experiment with HCT-116 colon, in the experiment on OVCAR-4 ovarian, with NCI-H226 lung and in the experiment on EKVX NSCLC was more than 100 µM in each case. Also, the TGI in the experiment on UACC-257 melanoma, in the experiment with HL-60(TB) leukemia, with HCT-15 colon and in the experiment on SK-OV-3 ovarian was more than 100 µM in each case.
